Experiments:
VIOTR = assay: Post-emergence herbicidal action against VIOTR; type: in vivo, Viola tricolor; details: 320 g/ha, visual rating about 3 weeks after treatment
Description: (§1) [table] Seeds of mono- and dicotyledonous weed plants are placed in plastic pots in sandy loam soil (twin sowing with one species each of mono- or dicotyledonous weed plants per pot), covered with soil and cultivated in a greenhouse under controlled growth conditions. 2 to 3 weeks after sowing, the test plants are treated at the one-leaf stage. The compounds of the invention, formulated in the form of wettable powders (WP) or as emulsion concentrates (EC), are applied to the green parts of the plants as aqueous suspension or emulsion with addition of 0.5% additive at a water application rate equivalent to 600 litres per hectare. After the test plants have been kept in the greenhouse under optimum growth conditions for about 3 weeks, the activity of the preparations is rated visually in comparison to untreated controls. For example, 100% activity=the plants have died, 0% activity=like control plants. Tables 5.1-5.16 below show the effects of selected compounds of the general formula (I) according to Tables 1 to 3 on various harmful plants at an application rate corresponding to 1280 or 320 g/ha, which have been obtained by the aforementioned experimental method.

PHBPU = assay: Post-emergence herbicidal action against PHBPU; type: in vivo, Pharbitis purpurea; details: 320 g/ha, visual rating about 3 weeks after treatment
Description: as §1

AMARE [1] = assay: Post-emergence herbicidal action against AMARE; type: in vivo, Amaranthus retroflexus; details: visual rating about 3 weeks after treatment
How it was run: (§2)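 Applied post-emergence at 1280 or 320 g/ha to one-leaf-stage weeds grown in sandy loam, using WP or EC formulations in water (600 litres per hectare, 0.5% additive). Efficacy is scored visually relative to untreated plants about 3 weeks later, 0% meaning no effect and 100% plant death.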

SETVI [2] = assay: Post-emergence herbicidal action against SETVI; type: in vivo, Setaria viridis; details: 1280 g/ha, post-emergence at one-leaf stage, rated visually after about 3 weeks vs untreated controls
Description: as §1

ECHCG [3] = assay: Post-emergence herbicidal action against ECHCG; type: in vivo, Echinochloa crus-galli; details: 1280 g/ha, post-emergence at one-leaf stage, rated visually after about 3 weeks vs untreated controls
Description: as §1

AMARE [4] = assay: Pre-emergence herbicidal action against AMARE; type: in vivo, Amaranthus retroflexus; details: scored visually after about 3 weeks vs untreated controls; for Pre-emergence action against AMARE in %: 1280 g/ha
How it was run: (§3)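 Scoring is visual, in percent relative to untreated pots, roughly 3 weeks after soil-surface application. Rates were 1280 or 320 g/ha, delivered as WP or EC preparations with 0.5% additive in 600 L/ha water onto freshly sown, covered sandy loam.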

STEME [5] = assay: Post-emergence herbicidal action against STEME; type: in vivo, Stellaria media; details: visual rating about 3 weeks after treatment
How it was run: as §2

STEME [6] = assay: Pre-emergence herbicidal action against STEME; type: in vivo, Stellaria media; details: 1280 g/ha, scored visually after about 3 weeks vs untreated controls
How it was run: as §3

MATIN = assay: Post-emergence herbicidal action against MATIN; type: in vivo, Matricaria inodora; details: visual rating about 3 weeks after treatment
Description: as §1

SETVI [7] = assay: Pre-emergence herbicidal action against SETVI; type: in vivo, Setaria viridis; details: 1280 g/ha, scored visually after about 3 weeks vs untreated controls
How it was run: as §3

ECHCG [8] = assay: Pre-emergence herbicidal action against ECHCG; type: in vivo, Echinochloa crus-galli; details: scored visually after about 3 weeks vs untreated controls, 100% = plants have died, 0% = like control plants
Excerpt: (§4) Seeds of mono- and dicotyledonous weed plants are placed in plastic pots in sandy loam soil (doubly sown with one species each of mono- or dicotyledonous weed plants per pot) and covered with soil. The compounds of the invention, formulated in the form of wettable powders (WP) or as emulsion concentrates (EC), are then applied onto the surface of the covering soil as aqueous suspension or emulsion with addition of 0.5% additive at a water application rate equivalent to 600 litres per hectare. After the treatment, the pots are placed in a greenhouse and kept under good growth conditions for the trial plants. After about 3 weeks, the effect of the preparations is scored visually in comparison with untreated controls as percentages. For example, 100% activity=the plants have died, 0% activity=like control plants. [table] Tables 4.1-4.15 below show the effects of selected compounds of the general formula (I) according to Tables 1 to 3 on various harmful plants at an application rate corresponding to 1280 or 320 g/ha, which have been obtained by the aforementioned experimental method.

VERPE [9] = assay: Post-emergence herbicidal action against VERPE; type: in vivo, Veronica persica; details: 320 g/ha, visual rating about 3 weeks after treatment
Description: as §1

VERPE [10] = assay: Pre-emergence herbicidal action against VERPE; type: in vivo, Veronica persica; details: 320 g/ha, scored visually after about 3 weeks vs untreated controls
Excerpt: as §4

POLCO = assay: Post-emergence herbicidal action against POLCO; type: in vivo, Polygonum convolvulus; details: 320 g/ha, visual rating about 3 weeks after treatment
Description: as §1

Row | Structure (SMILES) | Post-emergence action against VIOTR in % (VIOTR) [%] | Post-emergence action against PHBPU in % (PHBPU) [%] | Post-emergence action against AMARE in % (AMARE [1]; 320 g/ha) [%] | Post-emergence action against AMARE in % (AMARE [1]; 1280 g/ha) [%] | Post-emergence action against SETVI in % (SETVI [2]) [%] | Post-emergence action against ECHCG in % (ECHCG [3]) [%] | Pre-emergence action against AMARE in % (AMARE [4]) [%] | Post-emergence action against STEME in % (STEME [5]; 1280 g/ha) [%] | Pre-emergence action against STEME in % (STEME [6]) [%] | Post-emergence action against MATIN in % (MATIN; 1280 g/ha) [%] | Pre-emergence action against SETVI in % (SETVI [7]) [%] | Pre-emergence action at 1280 g/ha against ECHCG in % (ECHCG [8]) [%] | Post-emergence action against VERPE in % (VERPE [9]) [%] | Pre-emergence action at 320 g/ha against AMARE in % (AMARE [4]; 320 g/ha, 100% = plants have died, 0% = like control plants) [%] | Post-emergence action against STEME in % (STEME [5]; 320 g/ha) [%] | Pre-emergence action against VERPE in % (VERPE [10]) [%] | Post-emergence action against MATIN in % (MATIN; 320 g/ha) [%] | Post-emergence action against POLCO in % (POLCO) [%]
1 | COC(=O)COc1nn(-c2cccc(F)c2)c(-c2ccc(Cl)cc2)c1Cl [I-005] | 80 | 80 | 80 | 80 |  |  |  |  |  |  |  |  |  |  |  |  |  | 
2 | COC(=O)C(C)Oc1nn(-c2c(F)cccc2F)c(-c2ccc(F)c(F)c2)c1Br (stereo not shown) [I-169] |  |  |  | 100 | 90 | 90 | 100 | 100 | 100 | 90 | 100 | 100 |  |  |  |  |  | 
3 | O=C(O)COc1nn(-c2ccc(F)cc2)c(-c2cccc(F)c2)c1Cl [I-120] |  |  |  |  |  | 90 | 100 |  | 100 | 90 | 100 | 90 |  |  |  |  |  | 
4 | CCOC(=O)COc1nn(-c2ccccc2F)c(-c2ccc(F)c(F)c2)c1[N+](=O)[O-] [I-143] |  |  |  | 100 |  | 100 | 100 | 100 | 90 | 100 | 100 |  |  |  |  |  |  | 
5 | COC(=O)COc1nn(-c2ccc(Cl)cc2)c(-c2cccc(F)c2)c1Cl [I-029] |  | 80 |  |  |  |  |  |  |  |  |  |  | 80 |  |  |  |  | 
6 | CCOC(=O)COc1nn(-c2cc(F)c(F)cc2F)c(-c2cccc(F)c2)c1Cl [I-097] |  |  |  |  | 90 | 100 | 100 | 100 | 100 | 100 | 100 | 100 |  |  |  |  |  | 
7 | CCOC(=O)COc1nn(-c2ccc(F)cc2F)c(-c2cccc(F)c2)c1Cl [I-098] |  |  |  | 100 | 90 | 100 | 100 | 90 | 100 | 90 | 90 | 100 |  |  |  |  |  | 
8 | COC(=O)[C@H](C)Oc1nn(-c2cccc(F)c2)c(-c2cccc(F)c2)c1C#N [I-126] |  |  |  | 100 | 90 | 90 | 100 | 100 | 100 |  | 100 |  |  |  |  |  |  | 
9 | O=C(O)COc1nn(-c2ccccc2F)c(-c2ccc(F)c(F)c2)c1Br [I-136] |  |  |  | 90 |  | 100 | 100 | 100 | 100 | 90 | 100 | 100 |  |  |  |  |  | 
10 | COC(=O)COc1nn(-c2cccc(F)c2)c(-c2cccc(F)c2)c1C#N [I-047] | 90 | 80 | 80 |  |  |  |  |  |  |  |  |  | 80 | 90 | 80 | 90 | 80 | 
11 | CCOC(=O)CCNC(=O)COc1nn(-c2ccc(F)cc2)c(-c2cccc(F)c2)c1Br [III-019] |  |  |  | 100 | 90 | 90 | 90 |  | 100 | 90 | 100 |  |  |  |  |  |  | 
12 | CCOC(=O)COc1nn(-c2cc(F)c(F)cc2F)c(-c2ccccc2)c1Cl [I-093] |  |  |  | 100 |  | 100 | 100 | 100 | 100 | 100 | 100 | 100 |  |  |  |  |  | 
13 | CC(Oc1nn(-c2c(F)cccc2F)c(-c2ccc(F)c(F)c2)c1Br)C(=O)O (stereo not shown) [I-167] |  |  |  |  |  | 90 | 100 | 100 | 100 |  | 100 | 100 |  |  |  |  |  | 
14 | COC(=O)COc1nn(-c2ccc(F)cc2)c(-c2ccccc2)c1C#N [I-011] |  |  |  |  |  |  | 90 | 80 |  | 90 |  | 80 | 80 |  |  |  | 90 | 80
15 | COC(=O)COc1nn(-c2ccccc2)c(-c2ccc(Cl)cc2)c1Cl [I-004] |  | 80 |  | 80 |  |  | 90 |  |  |  |  |  |  |  |  |  |  | 80
16 | COC(=O)COc1nn(-c2cccc(F)c2)c(-c2cccc(Cl)c2)c1C#N [I-038] |  | 80 |  | 90 |  |  |  |  |  | 80 |  |  | 80 |  |  |  |  | 
17 | COC(=O)C(C)Oc1nn(-c2ccccc2)c(-c2cccc(F)c2)c1Cl (stereo not shown) [I-164] |  |  |  | 100 | 100 | 90 | 100 | 100 | 100 | 100 | 100 | 100 |  |  |  |  |  | 
18 | O=C(COc1nn(-c2ccc(F)cc2)c(-c2cccc(F)c2)c1Br)OCc1cccc(F)c1 [I-123] |  |  |  | 90 |  | 90 | 100 |  | 100 | 90 | 90 |  |  |  |  |  |  | 
19 | COC(=O)COc1nn(-c2ccc(F)cc2)c(-c2cccc(F)c2)c1Br [I-107] |  |  |  | 100 |  | 90 | 90 | 90 | 100 | 100 | 90 | 100 |  |  |  |  |  | 
